{"source": "the NIST ThermoML archive (doi:10.1021/je0499364)", "key": {"[1]": {"settings": "Crystal"}, "[2]": {"test": "Molar enthalpy of transition or fusion", "settings": "Crystal"}, "[3]": {"test": "molar heat capacity at constant pressure", "settings": "101.33 kPa"}}, "note": "± gives the expanded uncertainty stated by the source."}
{"smiles": "CCCCCCCCCCC(=O)OC", "note": "[methyl undecanoate]", "values": [{"measurement": "Triple point temperature", "setting": "[1]", "result": "261.8 ± 0.16", "unit": "K"}, {"measurement": "Molar enthalpy of transition or fusion", "setting": "[2]", "result": "8.65 ± 0.122", "unit": "kcal/mol"}, {"measurement": "molar heat capacity at constant pressure", "setting": "[3]; 5 K, Crystal", "result": "0.42 ± 0.03", "unit": "J/K/mol"}, {"measurement": "molar heat capacity at constant pressure", "setting": "[3]; 10 K, Crystal", "result": "3.28 ± 0.08", "unit": "J/K/mol"}, {"measurement": "molar heat capacity at constant pressure", "setting": "[3]; 20 K, Crystal", "result": "18.49 ± 0.23", "unit": "J/K/mol"}, {"measurement": "molar heat capacity at constant pressure", "setting": "[3]; 30 K, Crystal", "result": "38.09 ± 0.24", "unit": "J/K/mol"}, {"measurement": "molar heat capacity at constant pressure", "setting": "[3]; 40 K, Crystal", "result": "59.59 ± 0.32", "unit": "J/K/mol"}, {"measurement": "molar heat capacity at constant pressure", "setting": "[3]; 50 K, Crystal", "result": "80.21 ± 0.4", "unit": "J/K/mol"}, {"measurement": "molar heat capacity at constant pressure", "setting": "[3]; 60 K, Crystal", "result": "97.96 ± 0.47", "unit": "J/K/mol"}, {"measurement": "molar heat capacity at constant pressure", "setting": "[3]; 70 K, Crystal", "result": "113.74 ± 0.54", "unit": "J/K/mol"}, {"measurement": "molar heat capacity at constant pressure", "setting": "[3]; 80 K, Crystal", "result": "128.03 ± 0.59", "unit": "J/K/mol"}, {"measurement": "molar heat capacity at constant pressure", "setting": "[3]; 90 K, Crystal", "result": "141.39 ± 0.68", "unit": "J/K/mol"}, {"measurement": "molar heat capacity at constant pressure", "setting": "[3]; 100 K, Crystal", "result": "152.92 ± 0.71", "unit": "J/K/mol"}, {"measurement": "molar heat capacity at constant pressure", "setting": "[3]; 110 K, Crystal", "result": "163.81 ± 0.73", "unit": "J/K/mol"}, {"measurement": "molar heat capacity at constant pressure", "setting": "[3]; 120 K, Crystal", "result": "173.57 ± 0.75", "unit": "J/K/mol"}, {"measurement": "molar heat capacity at constant pressure", "setting": "[3]; 130 K, Crystal", "result": "182.89 ± 0.77", "unit": "J/K/mol"}, {"measurement": "molar heat capacity at constant pressure", "setting": "[3]; 140 K, Crystal", "result": "191.72 ± 0.78", "unit": "J/K/mol"}, {"measurement": "molar heat capacity at constant pressure", "setting": "[3]; 150 K, Crystal", "result": "200.53 ± 0.8", "unit": "J/K/mol"}, {"measurement": "molar heat capacity at constant pressure", "setting": "[3]; 160 K, Crystal", "result": "209.38 ± 0.82", "unit": "J/K/mol"}, {"measurement": "molar heat capacity at constant pressure", "setting": "[3]; 170 K, Crystal", "result": "217.78 ± 0.84", "unit": "J/K/mol"}, {"measurement": "molar heat capacity at constant pressure", "setting": "[3]; 180 K, Crystal", "result": "226.5 ± 0.85", "unit": "J/K/mol"}, {"measurement": "molar heat capacity at constant pressure", "setting": "[3]; 190 K, Crystal", "result": "235.38 ± 0.87", "unit": "J/K/mol"}, {"measurement": "molar heat capacity at constant pressure", "setting": "[3]; 200 K, Crystal", "result": "244.52 ± 0.89", "unit": "J/K/mol"}, {"measurement": "molar heat capacity at constant pressure", "setting": "[3]; 210 K, Crystal", "result": "253.93 ± 0.91", "unit": "J/K/mol"}, {"measurement": "molar heat capacity at constant pressure", "setting": "[3]; 220 K, Crystal", "result": "264.97 ± 0.93", "unit": "J/K/mol"}, {"measurement": "molar heat capacity at constant pressure", "setting": "[3]; 230 K, Crystal", "result": "276.95 ± 0.95", "unit": "J/K/mol"}, {"measurement": "molar heat capacity at constant pressure", "setting": "[3]; 240 K, Crystal", "result": "291.77 ± 0.98", "unit": "J/K/mol"}, {"measurement": "molar heat capacity at constant pressure", "setting": "[3]; 250 K, Crystal", "result": "320.5 ± 1", "unit": "J/K/mol"}, {"measurement": "molar heat capacity at constant pressure", "setting": "[3]; 270 K, Liquid", "result": "395.83 ± 1.2", "unit": "J/K/mol"}, {"measurement": "molar heat capacity at constant pressure", "setting": "[3]; 280 K, Liquid", "result": "398.95 ± 1.2", "unit": "J/K/mol"}, {"measurement": "molar heat capacity at constant pressure", "setting": "[3]; 290 K, Liquid", "result": "402.95 ± 1.2", "unit": "J/K/mol"}, {"measurement": "molar heat capacity at constant pressure", "setting": "[3]; 300 K, Liquid", "result": "406.99 ± 1.2", "unit": "J/K/mol"}, {"measurement": "molar heat capacity at constant pressure", "setting": "[3]; 310 K, Liquid", "result": "411.22 ± 1.2", "unit": "J/K/mol"}, {"measurement": "molar heat capacity at constant pressure", "setting": "[3]; 320 K, Liquid", "result": "416.08 ± 1.2", "unit": "J/K/mol"}, {"measurement": "molar heat capacity at constant pressure", "setting": "[3]; 330 K, Liquid", "result": "421.78 ± 1.2", "unit": "J/K/mol"}, {"measurement": "molar heat capacity at constant pressure", "setting": "[3]; 340 K, Liquid", "result": "426.55 ± 1.2", "unit": "J/K/mol"}, {"measurement": "molar heat capacity at constant pressure", "setting": "[3]; 350 K, Liquid", "result": "431.52 ± 1.3", "unit": "J/K/mol"}]}
